The values below come from the NIST ThermoML archive (doi:10.1021/acs.jced.7b00083).

Numbers after ± are expanded uncertainties.

The data set is described as follows: molar enthalpy of vaporization or sublimation. The conditions noted are these: 298.15 K; Crystal; Static calorimetry.

In the case of `S=C1NCCN1` [imidazolidine-2-thione], the molar enthalpy came to 25.7 ± 0.359 kcal/mol.
